pKd: −log10 of the molar value. Structures can show the parent of a compound that is named as a salt. Where two headings read alike, the source gives them in different places.
Tests used:
EPHA6 = molecular target: T1, EPHA6 (Homo sapiens, UniProt Q9UF33); test: Binding constants (Kd) for EPHA6, kinase competition binding with qPCR readout
T1 sequence (Q9UF33 23-1036): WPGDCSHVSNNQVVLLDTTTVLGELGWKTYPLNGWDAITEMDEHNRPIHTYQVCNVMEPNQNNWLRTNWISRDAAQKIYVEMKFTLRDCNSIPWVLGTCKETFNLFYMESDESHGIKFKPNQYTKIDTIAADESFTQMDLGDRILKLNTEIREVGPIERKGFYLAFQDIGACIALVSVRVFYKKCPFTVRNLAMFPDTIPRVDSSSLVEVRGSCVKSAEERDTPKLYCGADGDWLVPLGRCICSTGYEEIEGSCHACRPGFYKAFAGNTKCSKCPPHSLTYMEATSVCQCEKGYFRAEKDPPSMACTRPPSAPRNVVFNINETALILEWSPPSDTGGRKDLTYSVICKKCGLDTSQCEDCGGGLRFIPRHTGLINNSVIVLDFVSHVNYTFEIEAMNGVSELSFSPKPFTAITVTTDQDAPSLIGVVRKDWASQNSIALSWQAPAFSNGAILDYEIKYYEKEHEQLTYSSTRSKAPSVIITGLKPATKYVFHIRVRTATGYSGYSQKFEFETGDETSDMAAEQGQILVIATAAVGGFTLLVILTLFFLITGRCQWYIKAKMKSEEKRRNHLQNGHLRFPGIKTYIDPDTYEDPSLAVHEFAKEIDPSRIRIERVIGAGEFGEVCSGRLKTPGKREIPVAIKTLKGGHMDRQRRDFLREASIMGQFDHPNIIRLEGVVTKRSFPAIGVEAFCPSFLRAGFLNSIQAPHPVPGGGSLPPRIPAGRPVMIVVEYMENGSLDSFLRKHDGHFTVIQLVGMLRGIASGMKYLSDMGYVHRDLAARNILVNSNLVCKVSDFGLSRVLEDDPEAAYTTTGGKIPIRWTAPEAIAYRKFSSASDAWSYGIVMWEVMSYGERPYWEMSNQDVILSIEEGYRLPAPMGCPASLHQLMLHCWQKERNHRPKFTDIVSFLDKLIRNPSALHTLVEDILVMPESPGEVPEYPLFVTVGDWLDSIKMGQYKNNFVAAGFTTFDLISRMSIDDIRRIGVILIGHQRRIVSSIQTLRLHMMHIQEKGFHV

P-gp = molecular target: T2, P-gp (Homo sapiens, UniProt P08183); test: Evaluation of P-gp efflux in Caco-2 cell monolayers; type: in vitro ADME;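 further: Caco-2 monolayers dosed apically or basolaterally with test compound at 5 µM in HBSS with HEPES and glucose, 37 °C, donor and receiver sampled after 120 min, LC/MS peak areas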
T2 construct: host or cells: Caco-2 (C2BBe1)
T2 sequence (P08183 whole entry): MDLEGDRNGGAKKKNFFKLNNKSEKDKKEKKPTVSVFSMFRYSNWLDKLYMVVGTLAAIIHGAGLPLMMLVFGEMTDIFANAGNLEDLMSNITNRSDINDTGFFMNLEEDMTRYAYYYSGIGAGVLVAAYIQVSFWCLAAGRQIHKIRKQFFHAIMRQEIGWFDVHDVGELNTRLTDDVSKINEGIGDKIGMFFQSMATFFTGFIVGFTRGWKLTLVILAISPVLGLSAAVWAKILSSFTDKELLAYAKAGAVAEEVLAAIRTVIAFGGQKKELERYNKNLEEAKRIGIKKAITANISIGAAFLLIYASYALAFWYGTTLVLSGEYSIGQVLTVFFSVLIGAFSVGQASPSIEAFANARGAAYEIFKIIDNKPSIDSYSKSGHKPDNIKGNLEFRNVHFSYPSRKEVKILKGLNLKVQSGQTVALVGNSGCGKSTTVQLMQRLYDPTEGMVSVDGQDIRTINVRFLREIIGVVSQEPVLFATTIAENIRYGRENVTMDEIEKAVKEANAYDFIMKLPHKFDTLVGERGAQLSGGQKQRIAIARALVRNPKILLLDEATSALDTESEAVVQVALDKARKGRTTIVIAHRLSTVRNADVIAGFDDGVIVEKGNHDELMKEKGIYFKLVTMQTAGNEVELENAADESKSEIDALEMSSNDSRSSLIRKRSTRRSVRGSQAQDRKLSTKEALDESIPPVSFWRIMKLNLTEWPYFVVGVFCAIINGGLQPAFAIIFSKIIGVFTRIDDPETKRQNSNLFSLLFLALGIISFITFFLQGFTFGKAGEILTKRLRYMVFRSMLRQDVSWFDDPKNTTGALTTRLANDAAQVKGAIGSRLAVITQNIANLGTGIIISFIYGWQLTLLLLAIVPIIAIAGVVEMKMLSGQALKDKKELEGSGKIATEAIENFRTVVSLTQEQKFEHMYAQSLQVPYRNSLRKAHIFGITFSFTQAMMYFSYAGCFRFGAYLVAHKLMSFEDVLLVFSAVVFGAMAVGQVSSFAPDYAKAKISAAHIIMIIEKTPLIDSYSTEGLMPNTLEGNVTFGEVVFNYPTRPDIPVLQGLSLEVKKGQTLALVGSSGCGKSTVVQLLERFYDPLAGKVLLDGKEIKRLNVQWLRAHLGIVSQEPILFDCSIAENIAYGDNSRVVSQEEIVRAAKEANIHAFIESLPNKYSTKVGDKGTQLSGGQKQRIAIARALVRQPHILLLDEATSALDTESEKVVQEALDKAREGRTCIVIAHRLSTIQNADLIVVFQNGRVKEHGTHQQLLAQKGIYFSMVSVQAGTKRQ

SK-MEL-28 = test: NCI screening panel, growth %; type: cell-based, human; details: Melanoma
Description: (§1) After 24 h, two plates of each cell line are fixed in situ with TCA, to represent a measurement of the cell population for each cell line at the time of drug addition (Tz). Experimental drugs are solubilised in dimethyl sulfoxide at 400-fold the desired final maximum test concentration and stored frozen prior to use. At the time of drug addition, an aliquot of frozen concentrate is thawed and diluted to twice the desired final maximum test concentration with complete medium containing 50 μg/ml gentamicin. Additional four, 10-fold or log serial dilutions are made to provide a total of five drug concentrations plus control. Aliquots of 100 μl of these different drug dilutions are added to the appropriate microtiter wells already containing 100 μl of medium, resulting in the required final drug concentrations.
(§2) Following drug addition, the plates are incubated for an additional 48 h at 37° C., 5% CO2, 95% air, and 100% relative humidity. For adherent cells, the assay is terminated by the addition of cold TCA (trichloroacetic acid). Cells are fixed in situ by the gentle addition of 50 μl of cold 50% (w/v) TCA (final concentration, 10% TCA) and incubated for 60 minutes at 4° C. The supernatant is discarded, and the plates are washed five times with tap water and air dried. Sulforhodamine B (SRB) solution (100 μl) at 0.4% (w/v) in 1% acetic acid is added to each well, and plates are incubated for 10 minutes at room temperature. After staining, unbound dye is removed by washing five times with 1% acetic acid and the plates are air dried. Bound stain is subsequently solubilised with 10 mM trizma base, and the absorbance is read on an automated plate reader at a wavelength of 515 nm. For suspension cells, the methodology is the same except that the assay is terminated by fixing settled cells at the bottom of the wells by gently adding 50 μl of 80% TCA (final concentration, 16% TCA). Using the seven absorbance measurements [time zero, […], control growth, (C), and test growth in the presence of drug at the five concentration levels (Ti)], the percentage growth is calculated at each of the drug concentration levels. Percentage growth inhibition is calculated as: [(Ti−Tz)/(C−Tz)]×100 for concentrations in which Ti>/=Tz and [(Ti−Tz)/Tz]×100 for concentrations in which Ti<Tz.
(§3) Three dose response parameters are calculated for each experimental agent. […] The drug concentration resulting in total growth inhibition (TGI) is calculated from Ti=Tz. […] Values are calculated for each of these three parameters if the level of activity is reached. However, if the effect is not reached or is exceeded, the value for that parameter is expressed as greater or less than the maximum or minimum concentration tested.

M14 = test: NCI screening panel, growth %; type: cell-based, human; details: Melanoma
Description: as §1, §2, §3

A498 = test: NCI screening panel, growth %; type: cell-based, human; details: Renal
Description: as §1, §2, §3

HOP-62 = test: NCI screening panel, growth %; type: cell-based, human; details: NSCLC
Description: as §1, §2, §3

MDA-MB-231/ATCC = test: NCI screening panel, growth %; type: cell-based, human; details: Breast
Description: as §1, §2, §3

TK-10 = test: NCI screening panel, growth %; type: cell-based, human; details: Renal
Description: as §1, §2, §3

HCC-2998 = test: NCI screening panel, growth %; type: cell-based, human; details: Colon
Description: as §1, §2, §3

BT-549 = test: NCI screening panel, growth %; type: cell-based, human; details: Breast
Description: as §1, §2, §3

SN12C = test: NCI screening panel, growth %; type: cell-based, human; details: Renal
Description: as §1, §2, §3

K-562 = test: NCI screening panel, growth %; type: cell-based, human; details: Leukemia
Description: as §1, §2, §3

ACHN = test: NCI screening panel, growth %; type: cell-based, human; details: Renal
Description: as §1, §2, §3

HOP-92 = test: NCI screening panel, growth %; type: cell-based, human; details: NSCLC
Description: as §1, §2, §3

SF-539 = test: NCI screening panel, growth %; type: cell-based, human; details: CNS
Description: as §1, §2, §3

Fc1ccc(Nc2ncnc3cc(OCCOC(F)F)c(OCCOC(F)F)cc23)c(F)c1Cl [Compound 2D•HCl, N-(3-chloro-2,4-difluoro-phenyl)-6,7-bis[2-(difluoromethoxy)ethoxy]quinazolin-4-amine]
pKd (EPHA6): 8.60 | recovery at 120 min, 5 μM (P-gp; Caco-2, pH 7.4, with none (verapamil 0 μM), Caco-2, Verapamil 0 μM, read-out: Recovery (%) AP-BL): 21.8% | recovery at 120 min, 5 μM (P-gp; Caco-2, pH 7.4, with none (verapamil 0 μM), Caco-2, Verapamil 0 μM, read-out: Recovery (%) BL-AP): 30.4% | recovery at 120 min, 5 μM (P-gp; Caco-2, pH 7.4, with verapamil 100 μM, Caco-2, Verapamil 100 μM, read-out: Recovery (%) AP-BL): 29.7% | recovery at 120 min, 5 μM (P-gp; Caco-2, pH 7.4, with verapamil 100 μM, Caco-2, Verapamil 100 μM, read-out: Recovery (%) BL-AP): 28.9% | Papp A→B at 120 min, 5 μM (P-gp; pH 7.4, Caco-2, Verapamil 0 μM): 4.02 ×10⁻⁶ cm/s | Papp B→A at 120 min, 5 μM (P-gp; pH 7.4, Caco-2, Verapamil 0 μM): 2.33 ×10⁻⁶ cm/s | efflux ratio at 120 min, 5 µM (P-gp; pH 7.4, Caco-2, Verapamil 0 μM): 0.58 | Growth % (SK-MEL-28): 81.10% | Growth % (M14): 59.47% | Growth % (A498): 13.11% | Growth % (HOP-62): 64.36% | Growth % (MDA-MB-231/ATCC): 65.62% | Growth % (TK-10): 34.04% | Growth % (HCC-2998): 91.93% | Growth % (BT-549): 93.32% | Growth % (SN12C): 59.26% | Growth % (K-562): 37.37% | Growth % (ACHN): 17.88% | Growth % (HOP-92): 39.43% | Growth % (SF-539): 73.76%

From patent publication US20180050993A1, “NOVEL FLUORINATED DERIVATIVES AS EGFR INHIBITORS USEFUL FOR TREATING CANCERS” (Trillium Therapeutics Inc., priority 2015, published 2018)
